From US20240099996A1, “METHODS FOR TREATING CANCER” (Radius Pharmaceuticals, Inc., priority 2015, published 2024)
Where a name gives a salt, the structure may show the parent alone.

Experiment: Phase 1 dose escalation study in healthy post-menopausal women, treatment related AEs
Type: in vivo
Method: The subjects were 40-75 years old with BMI of 18.0-30 kg/m^2. Subjects having evidence of clinically relevant pathology, increased risk of stroke or of history venous thromboembolic events, or use of concomitant medication less than 14 days prior to admission to clinical research center (paracetamol allowed up to 3 days prior) were excluded. Dosing
The subjects were treated with placebo or at least one dose p.o., q.d. after a light breakfast for 7 days at dose levels of 200 mg, 500 mg, 750 mg and 1000 mg, respectively.

Question: Which results are given for `CCNCCc1ccc(CN(CC)c2cc(OC)ccc2[C@@H]2CCc3cc(O)ccc3C2)cc1` [RAD1901, (6R)-6-(2-(N-(4-(2-(ethylamino)ethyl)benzyl)-N-ethylamino)-4-methoxyphenyl)-5,6,7,8-tetrahydronaphthalen-2-ol dihydrochloride]?
Answer: Abdominal discomfort Gr1 (200 mg, N = 15): 3 (20) n(%); Abdominal discomfort Gr2 (200 mg, N = 15): 0 n(%); Abdominal discomfort Gr3 (200 mg, N = 15): 0 n(%); Abdominal distension Gr1 (200 mg, N = 15): 1 (7) n(%); Abdominal distension Gr2 (200 mg, N = 15): 1 (7) n(%); Abdominal distension Gr3 (200 mg, N = 15): 0 n(%); Abdominal pain Gr1 (200 mg, N = 15): 2 (13) n(%); Abdominal pain Gr2 (200 mg, N = 15): 2 (13) n(%); Abdominal pain Gr3 (200 mg, N = 15): 0 n(%); Diarrhoea Gr1 (200 mg, N = 15): 0 n(%); Diarrhoea Gr2 (200 mg, N = 15): 0 n(%); Diarrhoea Gr3 (200 mg, N = 15): 0 n(%); Dizziness Gr1 (200 mg, N = 15): 1 (7) n(%); Dizziness Gr2 (200 mg, N = 15): 0 n(%); Dizziness Gr3 (200 mg, N = 15): 0 n(%); Dyspepsia Gr1 (200 mg, N = 15): 3 (20) n(%); Dyspepsia Gr2 (200 mg, N = 15): 0 n(%); Dyspepsia Gr3 (200 mg, N = 15): 0 n(%); Dysphagia Gr1 (200 mg, N = 15): 0 n(%); Dysphagia Gr2 (200 mg, N = 15): 0 n(%); Dysphagia Gr3 (200 mg, N = 15): 0 n(%); Flatulance Gr1 (200 mg, N = 15): 2 (13) n(%); Flatulance Gr2 (200 mg, N = 15): 0 n(%); Flatulance Gr3 (200 mg, N = 15): 0 n(%); Headache Gr1 (200 mg, N = 15): 3 (20) n(%); Headache Gr2 (200 mg, N = 15): 0 n(%); Headache Gr3 (200 mg, N = 15): 0 n(%); Hiccups Gr1 (200 mg, N = 15): 1 (7) n(%); Hiccups Gr2 (200 mg, N = 15): 0 n(%); Hiccups Gr3 (200 mg, N = 15): 0 n(%); Hot flush Gr1 (200 mg, N = 15): 2 (13) n(%); Hot flush Gr2 (200 mg, N = 15): 0 n(%); Hot flush Gr3 (200 mg, N = 15): 0 n(%); Myalgia Gr1 (200 mg, N = 15): 2 (13) n(%); Myalgia Gr2 (200 mg, N = 15): 1 (7) n(%); Myalgia Gr3 (200 mg, N = 15): 0 n(%); Nausea Gr1 (200 mg, N = 15): 5 (33) n(%); Nausea Gr2 (200 mg, N = 15): 0 n(%); Nausea Gr3 (200 mg, N = 15): 0 n(%); Odynophagia Gr1 (200 mg, N = 15): 2 (13) n(%); Odynophagia Gr2 (200 mg, N = 15): 0 n(%); Odynophagia Gr3 (200 mg, N = 15): 0 n(%); Oesophageal pain Gr1 (200 mg, N = 15): 0 n(%); Oesophageal pain Gr2 (200 mg, N = 15): 2 (13) n(%); Oesophageal pain Gr3 (200 mg, N = 15): 0 n(%); Salivary hypersecretion Gr1 (200 mg, N = 15): 2 (13) n(%); Salivary hypersecretion Gr2 (200 mg, N = 15): 0 n(%); Salivary hypersecretion Gr3 (200 mg, N = 15): 0 n(%); Sensation of a foreign body Gr1 (200 mg, N = 15): 2 (13) n(%); Sensation of a foreign body Gr2 (200 mg, N = 15): 0 n(%); Sensation of a foreign body Gr3 (200 mg, N = 15): 0 n(%); Vomiting Gr1 (200 mg, N = 15): 2 (13) n(%); Vomiting Gr2 (200 mg, N = 15): 0 n(%); Vomiting Gr3 (200 mg, N = 15): 0 n(%); Abdominal discomfort Gr1 (500 mg, N = 14): 0 n(%); Abdominal discomfort Gr2 (500 mg, N = 14): 0 n(%); Abdominal discomfort Gr3 (500 mg, N = 14): 0 n(%); Abdominal distension Gr1 (500 mg, N = 14): 1 n(%); Abdominal distension Gr2 (500 mg, N = 14): 0 n(%); Abdominal distension Gr3 (500 mg, N = 14): 0 n(%); Abdominal pain Gr1 (500 mg, N = 14): 3 n(%); Abdominal pain Gr2 (500 mg, N = 14): 0 n(%); Abdominal pain Gr3 (500 mg, N = 14): 0 n(%); Diarrhoea Gr1 (500 mg, N = 14): 3 n(%); Diarrhoea Gr2 (500 mg, N = 14): 0 n(%); Diarrhoea Gr3 (500 mg, N = 14): 0 n(%); Dizziness Gr1 (500 mg, N = 14): 2 n(%); Dizziness Gr2 (500 mg, N = 14): 0 n(%); Dizziness Gr3 (500 mg, N = 14): 0 n(%); Dyspepsia Gr1 (500 mg, N = 14): 5 n(%); Dyspepsia Gr2 (500 mg, N = 14): 2 (14) n(%); Dyspepsia Gr3 (500 mg, N = 14): 0 n(%); Dysphagia Gr1 (500 mg, N = 14): 1 n(%); Dysphagia Gr2 (500 mg, N = 14): 2 (14) n(%); Dysphagia Gr3 (500 mg, N = 14): 0 n(%); Flatulance Gr1 (500 mg, N = 14): 2 n(%); Flatulance Gr2 (500 mg, N = 14): 0 n(%); Flatulance Gr3 (500 mg, N = 14): 0 n(%); Headache Gr1 (500 mg, N = 14): 1 n(%); Headache Gr2 (500 mg, N = 14): 1 (7) n(%); Headache Gr3 (500 mg, N = 14): 0 n(%); Hiccups Gr1 (500 mg, N = 14): 4 n(%); Hiccups Gr2 (500 mg, N = 14): 0 n(%); Hiccups Gr3 (500 mg, N = 14): 0 n(%); Hot flush Gr1 (500 mg, N = 14): 6 n(%); Hot flush Gr2 (500 mg, N = 14): 0 n(%); Hot flush Gr3 (500 mg, N = 14): 0 n(%); Myalgia Gr1 (500 mg, N = 14): 0 n(%); Myalgia Gr2 (500 mg, N = 14): 1 (7) n(%); Myalgia Gr3 (500 mg, N = 14): 0 n(%); Nausea Gr1 (500 mg, N = 14): 3 n(%); Nausea Gr2 (500 mg, N = 14): 2 (14) n(%); Nausea Gr3 (500 mg, N = 14): 0 n(%); Odynophagia Gr1 (500 mg, N = 14): 1 n(%); Odynophagia Gr2 (500 mg, N = 14): 1 (7) n(%); Odynophagia Gr3 (500 mg, N = 14): 0 n(%); Oesophageal pain Gr1 (500 mg, N = 14): 1 n(%); Oesophageal pain Gr2 (500 mg, N = 14): 3 (21) n(%); Oesophageal pain Gr3 (500 mg, N = 14): 0 n(%); Salivary hypersecretion Gr1 (500 mg, N = 14): 2 n(%); Salivary hypersecretion Gr2 (500 mg, N = 14): 0 n(%); Salivary hypersecretion Gr3 (500 mg, N = 14): 0 n(%); Sensation of a foreign body Gr1 (500 mg, N = 14): 1 n(%); Sensation of a foreign body Gr2 (500 mg, N = 14): 0 n(%); Sensation of a foreign body Gr3 (500 mg, N = 14): 0 n(%); Vomiting Gr1 (500 mg, N = 14): 1 n(%); Vomiting Gr2 (500 mg, N = 14): 5 (36) n(%); Vomiting Gr3 (500 mg, N = 14): 1 (7) n(%); Abdominal discomfort Gr1 (750 mg, N = 8): 1 (13) n(%); Abdominal discomfort Gr2 (750 mg, N = 8): 1 (13) n(%); Abdominal discomfort Gr3 (750 mg, N = 8): 0 n(%); Abdominal distension Gr1 (750 mg, N = 8): 1 (13) n(%); Abdominal distension Gr2 (750 mg, N = 8): 0 n(%); Abdominal distension Gr3 (750 mg, N = 8): 0 n(%); Abdominal pain Gr1 (750 mg, N = 8): 1 (13) n(%); Abdominal pain Gr2 (750 mg, N = 8): 0 n(%); Abdominal pain Gr3 (750 mg, N = 8): 0 n(%); Diarrhoea Gr1 (750 mg, N = 8): 0 n(%); Diarrhoea Gr2 (750 mg, N = 8): 0 n(%); Diarrhoea Gr3 (750 mg, N = 8): 0 n(%); Dizziness Gr1 (750 mg, N = 8): 1 (13) n(%); Dizziness Gr2 (750 mg, N = 8): 0 n(%); Dizziness Gr3 (750 mg, N = 8): 0 n(%); Dyspepsia Gr1 (750 mg, N = 8): 4 (50) n(%); Dyspepsia Gr2 (750 mg, N = 8): 0 n(%); Dyspepsia Gr3 (750 mg, N = 8): 0 n(%); Dysphagia Gr1 (750 mg, N = 8): 3 (38) n(%); Dysphagia Gr2 (750 mg, N = 8): 1 (13) n(%); Dysphagia Gr3 (750 mg, N = 8): 0 n(%); Flatulance Gr1 (750 mg, N = 8): 1 (13) n(%); Flatulance Gr2 (750 mg, N = 8): 0 n(%); Flatulance Gr3 (750 mg, N = 8): 0 n(%); Headache Gr1 (750 mg, N = 8): 3 (38) n(%); Headache Gr2 (750 mg, N = 8): 0 n(%); Headache Gr3 (750 mg, N = 8): 0 n(%); Hiccups Gr1 (750 mg, N = 8): 2 (25) n(%); Hiccups Gr2 (750 mg, N = 8): 0 n(%); Hiccups Gr3 (750 mg, N = 8): 0 n(%); Hot flush Gr1 (750 mg, N = 8): 2 (25) n(%); Hot flush Gr2 (750 mg, N = 8): 0 n(%); Hot flush Gr3 (750 mg, N = 8): 0 n(%); Myalgia Gr1 (750 mg, N = 8): 1 (13) n(%); Myalgia Gr2 (750 mg, N = 8): 0 n(%); Myalgia Gr3 (750 mg, N = 8): 0 n(%); Nausea Gr1 (750 mg, N = 8): 2 (25) n(%)
